Experimental data published in patent publication US20230348486A1, “NEAR-INFRARED EMITTING PORPHYRIN COMPOUND AND PREPARATION METHOD AND USE THEREOF” (PEKING UNIVERSITY, priority 2020, published 2023).

What was measured:
[1] = system: HCT 116 human colon cancer cells; test: Cytophototoxicity test (CCK-8) under white light; format: cell-based; conditions: HCT-116, 0.5 h, HCT116, white light 400-700 nm, about 6.5 mW/cm^2, 30 minutes, read-out: median lethal concentration IC50
Protocol: (§1) The cells used in the experiment included HeLa human cervical cancer cells, HepG2 human liver cancer cells, A375 human malignant melanoma cells, MCF7 human breast cancer cells, and HCT 116 human colon cancer cells. The cells were cultured in DMEM complete medium supplemented with 10% inactivated fetal bovine serum and 1% penicillin-streptomycin at 37° C. under the atmosphere of 5% carbon dioxide.
(§2) After trypsinized, the subculture HeLa cells were dispersed in the medium at appropriate concentration. Then, the dispersed HeLa cells were seeded into a poly-D-lysine modified flat-bottom 96-well plate, so that the amount of medium and the number of cells in each well were 200 µL and about 10^4, respectively, except a group of wells containing medium free of cells for blank control. After culturing the cells in the dark for 24 hours, the medium was removed, and 100 µL of fresh medium and 100 µL of pre-prepared medium solution containing molecule 6 synthesised in Example 6 were added, and then the sample was diluted to a gradient concentration of 0.1-5 µM. After culturing in the dark for another 24 hours, the medium was removed, and each well was rinsed 3 times with PBS (pH=7.4). 100µL of PBS buffer was added to each well, and irradiated
(§3) by white light (400-700 nm) with the same light intensity (about 6.5 mW/cm^2) under bromo-tungsten lamp for 30 minutes. The PBS in each well was removed and replaced with 200 µL of fresh medium to continue culturing for 24 hours. After that, the medium was removed and the wells were rinsed 3 times with PBS. Then 100 µL of 10% CCK-8 reagent (Cell Counting Kit-8) formulated with medium was added into each well to culture the cells for 2 hours. Meanwhile, 2-(2-methoxy-4-nitrophenyl)-3-(4-nitrophenyl)-5-(2,4-disulfonic acid benzene)-2H-[…] monosodium salt (WST-8) can be reduced by living cells together with electronic coupling reagents to yield a yellow product of formazan, accordingly changing the absorbance of the solution at 450 nm, and there was a direct proportional relationship between the change level and the number of living cells. The absorbance change of each well at 450 nm was measued by a microplate reader, and the cell survival rates at various culture concentrations were calculated according to the following equation: […]
(§4) wherein CV refers to the cell survival rate; As, Ac and Ab refer to the absorbance of the cells cultured with the compound, the absorbance of the cells cultured without the compound and the absorbance of the blank control, respectively.
(§5) The median lethal concentrations IC50 of molecule 6 in different cell lines were calculated according to the cell survival rates at various culture concentrations, and the results were shown as follows: […]

[2] = system: MCF7 human breast cancer cells; test: Cytophototoxicity test (CCK-8) under white light; format: cell-based; conditions: 0.5 h, white light 400-700 nm, about 6.5 mW/cm^2, 30 minutes, read-out: median lethal concentration IC50
Protocol: as §1, §2, §3, §4, §5

[3] = system: HepG2 human liver cancer cells; test: Cytophototoxicity test (CCK-8) under white light; format: cell-based; conditions: 0.5 h, white light 400-700 nm, about 6.5 mW/cm^2, 30 minutes, read-out: median lethal concentration IC50
Protocol: as §1, §2, §3, §4, §5

[4] = system: A375 human malignant melanoma cells; test: Cytophototoxicity test (CCK-8) under white light; format: cell-based; conditions: A-375, 0.5 h, white light 400-700 nm, about 6.5 mW/cm^2, 30 minutes, read-out: median lethal concentration IC50
Protocol: as §1, §2, §3, §4, §5

[5] = system: HeLa human cervical cancer cells; test: Cytophototoxicity test (CCK-8) under white light; format: cell-based; conditions: 24 h incubation in the dark, white light 400-700 nm, about 6.5 mW/cm^2, 30 minutes, CCK-8 after 24 hours, read-out: median lethal concentration IC50
Protocol: as §1, §2, §3, §4, §5

[6] = system: A375 human malignant melanoma cells; test: Animal test of photodynamic therapy, subcutaneous tumor model; format: in vivo, BALB/C nude mice; conditions: skin application, 10 mg·kg^-1, light 400-700 nm, 2 weeks, FIG. 2
Protocol: BALB/C nude mice, which were 4-5 weeks old, females, 16-25 grams, were used in the in vivo experiment. Each mouse was inoculated with 100ul (5×10^6) of A375 human malignant melanoma cells subcutaneously in the right scapula, and the experiment was carried out two weeks later.
The nude mice were randomly individed to control group and skin application group with 6 mice in each group. The control group was only irradiated with light (tungsten lamp, 400-700 nm, 6.5 mW/cm^2) without administration, and the 1 mM/20 ul aqueous solution of molecule 6 was administrated to the skin application group in an amount of 10 mg·kg^-1 based on the weights of the nude mice. After administrated, the animals were protected from light for 24 hours, and then were each individually irradiated on their tumor sites for 30 minutes a day for consecutive 3 days. The nude mice were not protected from light after the treatment, and were took care in a breeding cage to observe the side effects such as skin phototoxicity appeared on each group of nude mice. After irradiated, the weights of nude mice were measured and their tumor volume were determined with vernier calipers every two days. After 2 weeks of treatment, the lumps were peeled off and weighed.

SMILES: C[N+](C)(C)c1c(F)c(F)c(-c2c3nc(c(-c4c(F)c(F)c([N+](C)(C)C)c(F)c4F)c4ccc([nH]4)c4c(nc5oc6c(F)c([N+](C)(C)C)c(F)c(F)c6c5c5ccc2[nH]5)oc2c(F)c([N+](C)(C)C)c(F)c(F)c24)C=C3)c(F)c1F [molecule 6]
- IC50 [1]: 1.52 ± 0.2 µM
- IC50 [2]: 0.85 ± 0.1 µM
- IC50 [3]: 0.8 ± 0.1 µM
- IC50 [4]: 4.75 ± 0.5 µM
- IC50 [5]: 2.69 ± 0.1 µM
- change of tumor size (growth of subcutaneous tumors) ([6]; 6.5 mW/cm^2, 30 minutes a day for 3 days): effectively inhibit the growth of subcutaneous tumors
- change of weight of the mice ([6]; 30 minutes a day for 3 days): no significant decrease
